Test results taken from patent US10471043B2, “Compounds and methods of treating bacterial infections” (ULTUPHARMA AB, priority 2015, dated 2019).
Converted amounts (≈) assume the structure as drawn. Read-outs that look alike come from different tables or passages of the source.

Legend:
A. Pittii/nosocomialis = assay: MIC panel of Gram-negative bacteria (Table 7); assay type: cell-based; conditions: Acinetobacter pittii; EN0180 A. Pittii/nosocomialis G−
Proteus mirabilis = assay: MIC panel of Gram-negative bacteria (Table 7); assay type: cell-based
K. pneumoniae = assay: MIC panel of Gram-negative bacteria (Table 7); assay type: cell-based; conditions: Klebsiella pneumoniae
S. aureus = assay: Antimicrobial Susceptibility Test by Broth Microdilution, M07-A9 CLSI; assay type: cell-based; conditions: Staphylococcus aureus
E. faecium = assay: as above; assay type: cell-based
in vitro [1] = conditions: human, Caco-2
P. aeruginosa = assay: MIC panel of Gram-negative bacteria (Table 7); assay type: cell-based; conditions: Pseudomonas aeruginosa
Serratia marescens = assay: MIC panel of Gram-negative bacteria (Table 7); assay type: cell-based; conditions: EN0454 Serratia marescens G− PKL 3692
E. faecalis = assay: Antimicrobial Susceptibility Test by Broth Microdilution, M07-A9 CLSI; assay type: cell-based; conditions: Enterococcus faecalis
S. epidermidis [2] = assay: as above; assay type: cell-based; conditions: Staphylococcus epidermidis
S. typhimurium = assay: MIC panel of Gram-negative bacteria (Table 7); assay type: cell-based; conditions: Salmonella enterica; EN0466 S. typhimurium G− TH6509
Citrobacter sp. = assay: MIC panel of Gram-negative bacteria (Table 7); assay type: cell-based; conditions: EN0465 Citrobacter sp. G− PKL 3710
S. pyogenes = assay: Antimicrobial Susceptibility Test by Broth Microdilution, M07-A9 CLSI; assay type: cell-based; conditions: Streptococcus pyogenes
A. baumannii = assay: MIC by broth micro-dilution; assay type: cell-based; conditions: A. baumannii (G−), Table 2
Description: (§1) At first (Table 1), MIC is determined by broth micro-dilution method. The test medium is Antibiotic Medium 3 (AM3; Difco Ltd) mixed with Phosphate Buffered Saline (PBS) in proportions 1:1. Selected MIC values are verified using cation-adjusted Mueller Hinton Broth (MHB; BD). Cell concentration of tested pathogen is adjusted to between 3 and 5×10^5 cells per ml. To verify cell concentration of tested pathogen, viable cell counts are performed directly after each MIC-test by dilution method with PBS as a dilution solvent. Cells are counted on the agar plates with 50% strength Vegetable Peptone Broth (50% VPB; Oxoid Ltd) after 16 to 20 h of incubation at 37° C.
(§2) Cells of pathogen suspended in test medium are distributed to the wells and the plates are incubated for 16 to 20 h at 37° C. Negative controls are wells with the test medium only and positive controls are wells with the pathogen in test medium. The MIC is defined as the lowest concentration of each compound with no visible growth of pathogen.

M. frederiksbergense = assay: MIC by broth micro-dilution; assay type: cell-based; conditions: Table 4; read-out: MIC (μg/ml) M. frederiksbergense
Description: as §1, §2

Bacillus cereus = assay: MIC by broth micro-dilution; assay type: cell-based; conditions: Table 4, read-out: MIC (μg/ml) B. cereus
Description: as §1, §2

HepG2 cells = conditions: human, 48 h
Enterobacter aerogenes = assay: MIC panel of Gram-negative bacteria (Table 7); assay type: cell-based; conditions: Klebsiella aerogenes; EN0461 Enterobacter aerogenes G− PKL 3706
in vitro [3] = conditions: human, CC50 (μg/mL)
S. epidermidis [4] = assay: MIC panel of Gram-negative bacteria (Table 7); assay type: cell-based; conditions: Staphylococcus epidermidis; EN0456 S. epidermidis G+ PKL 3694
S. pneumoniae = assay: Antimicrobial Susceptibility Test by Broth Microdilution, M07-A9 CLSI; assay type: cell-based; conditions: Streptococcus pneumoniae
E. coli = assay: MIC panel of Gram-negative bacteria (Table 7); assay type: cell-based; conditions: Escherichia coli
Micrococcus luteus = assay: MIC panel of Gram-negative bacteria (Table 7); assay type: cell-based; conditions: EN0455 Micrococcus luteus G+ PKL 3693
K. oxytoca = assay: MIC panel of Gram-negative bacteria (Table 7); assay type: cell-based; conditions: Klebsiella oxytoca; EN0392 K. oxytoca G−
A. baumanii = assay: MIC panel of Gram-negative bacteria (Table 7); assay type: cell-based

CCCCCCCCCC1CC(O)=C(C(=O)CCC)C(=O)O1 (stereo not drawn) [Ex. 1, 3-Butyryl-6-nonyl-4-hydroxy-5,6-dihydro-2H-pyran-2-one]
MIC (A. Pittii/nosocomialis): > 64 µg/mL | MIC (Proteus mirabilis; EN0445 P. mirabilis ST19 G−): >64 µg/mL | MIC (Proteus mirabilis; EN0457 Proteus mirabilis G− PKL 3695, read-out: MIC): > 64 µg/mL | MIC (K. pneumoniae; EN006 K. pneumoniae WT, ENABLE Primary MIC panel): > 64 µg/mL | MIC (K. pneumoniae; EN0010 K. pneumoniae, ENABLE L2C MIC panel (isogenic efflux pairs)): > 64 µg/mL | MIC (K. pneumoniae; EN0011 K. pneumoniae Efflux mut, ENABLE L2C MIC panel): 8 µg/mL (≈ 25.8 µM) | MIC (S. aureus; ATCC29213, S. aureus ATCC29213, QC strain, Table 5): 4 µg/mL (≈ 12.9 µM) | MIC (S. aureus; ATCC29213, S. aureus ATCC 29213, QC strain, Table 6): 4 µg/mL (≈ 12.9 µM) | MIC (S. aureus; MRSA, S. aureus PICI, Table 6): 4 µg/mL (≈ 12.9 µM) | MIC (S. aureus; MSSA, S. aureus MO 17, MSSA, Table 6): 2 µg/mL (≈ 6.44 µM) | MIC (S. aureus; S. aureus 6 Holland, Macrolide-resistant (M)): 1 µg/mL (≈ 3.22 µM) | MIC (S. aureus; S. aureus 56 Japan, Macrolide-resistant (MLSi)): 4 µg/mL (≈ 12.9 µM) | MIC (S. aureus; S. aureus 853E, Macrolide-sensitive): 2 µg/mL (≈ 6.44 µM) | MIC (S. aureus; S. aureus 4216, Tetracycline-resistant): 2 µg/mL (≈ 6.44 µM) | MIC (S. aureus; S. aureus 4384 (SSI), Methicillin-resistant): 2 µg/mL (≈ 6.44 µM) | MIC (S. aureus; S. aureus FR 131, Quinolone-resistant): 2 µg/mL (≈ 6.44 µM) | MIC (S. aureus; S. aureus MO17, Methicillin-sensitive, Table 5): 2 µg/mL (≈ 6.44 µM) | MIC (S. aureus; S. aureus PICI, Methicillin-resistant, Table 5): 4 µg/mL (≈ 12.9 µM) | MIC (S. aureus; S. aureus PK2, Macrolide-resistant (MLSc)): 2 µg/mL (≈ 6.44 µM) | MIC (E. faecium; E. faecium E.coc 7, Vancomycin -resistant, Table 6): 2 µg/mL (≈ 6.44 µM) | MIC (E. faecium; Enterococcus faecium, E. faecium 7, Vancomycin-resistant, Table 5, read-out: MIC): 2 µg/mL (≈ 6.44 µM) | Papp at 120 min, 10 μM (in vitro [1]): 53 ×10⁻⁶ cm/s | MIC (P. aeruginosa; EN004 P. aeruginosa WT, ENABLE Primary MIC panel): > 64 µg/mL | MIC (P. aeruginosa; EN005 P. aeruginosa Efflux mut, ENABLE Primary MIC panel): 2 µg/mL (≈ 6.44 µM) | MIC (P. aeruginosa; EN0014 P. aeruginosa, ENABLE L2C MIC panel): > 64 µg/mL | MIC (P. aeruginosa; EN0015 P. aeruginosa Efflux mut, ENABLE L2C MIC panel): > 64 µg/mL | MIC (P. aeruginosa; EN0422 P. aeruginosa G−): > 64 µg/mL | MIC (P. aeruginosa; EN0459 P. aeruginosa G− PKL 3699): > 64 µg/mL | MIC (P. aeruginosa; EN0460 P. aeruginosa G− PKL 3704): > 64 µg/mL | MIC (Serratia marescens): > 64 µg/mL | MIC (E. faecalis; E. faecalis E.cocco 12, Vancomycin -resistant): 2 µg/mL (≈ 6.44 µM) | MIC (E. faecalis; E. faecalis E.cocco 24, Vancomycin -sensitive, Table 6): 2 µg/mL (≈ 6.44 µM) | MIC (E. faecalis; E. faecalis 24, Vancomycin-sensitive, Table 5): 2 µg/mL (≈ 6.44 µM) | MIC (S. epidermidis [2]; MRSE, S. epidermidis TA12, MRSE, Table 6): 2 µg/mL (≈ 6.44 µM) | MIC (S. epidermidis [2]; S. epidermidis RO7, MSSE, Table 6): 1 µg/mL (≈ 3.22 µM) | MIC (S. epidermidis [2]; S. epidermis RO7, Methicillin-sensitive, Table 5): 1 µg/mL (≈ 3.22 µM) | MIC (S. epidermidis [2]; S. epidermis TA12, Methicillin-resistant, Table 5): 2 µg/mL (≈ 6.44 µM) | MIC (S. typhimurium): > 64 µg/mL | MIC (Citrobacter sp.): > 64 µg/mL | MIC (S. pyogenes; S. pyogenes 2 Finland, Macrolide-resistant (M)): 8 µg/mL (≈ 25.8 µM) | MIC (S. pyogenes; S. pyogenes 29A-TF, Macrolide- sensitive): 8 µg/mL (≈ 25.8 µM) | MIC (S. pyogenes; S. pyogenes 21 Finland, Macrolide-resistant (MLSc)): 8 µg/mL (≈ 25.8 µM) | MIC (μg/ml) A. baumannii (A. baumannii): 8 to 16 µg/mL | MIC (A. baumannii; Acinetobacter baumannii, read-out: MIC (μg/ml) A. baumannii): 16 to 24 µg/mL (≈ 51.5 to 77.3 µM) | MIC (M. frederiksbergense): ≤ 0.5 µg/mL | MIC (Bacillus cereus): ≤ 1 µg/mL | CC50 (HepG2 cells): 38 µM | MIC (Enterobacter aerogenes): > 64 µg/mL | CC50 at 48 h (in vitro [3]): 33 µM | MIC (S. epidermidis [4]): 1 µg/mL (≈ 3.22 µM) | MIC (S. pneumoniae; ATCC49619, S. pneumoniae ATCC 49619, QC strain): 4 µg/mL (≈ 12.9 µM) | MIC (S. pneumoniae; BAA1407, S. pneumoniae BAA1407, Macrolide-resistant (M + MLS)): 8 µg/mL | MIC (S. pneumoniae; S. pneumoniae 19A-TN, Quinolone-sensitive): 8 µg/mL (≈ 25.8 µM) | MIC (S. pneumoniae; S. pneumoniae 158bg, Macrolide-resistant (M)): 4 µg/mL (≈ 12.9 µM) | MIC (S. pneumoniae; S. pneumoniae 956, Macrolide-resistant (MLSc)): 4 µg/mL (≈ 12.9 µM) | MIC (S. pneumoniae; S. pneumoniae SP030, Macrolide- sensitive): 8 µg/mL (≈ 25.8 µM) | MIC (S. pneumoniae; S. pneumoniae TE 122-024, Quinolone-resistant): 8 µg/mL (≈ 25.8 µM) | MIC (S. pneumoniae; S. pneumoniae TE 122-026, Tetracycline-resistant): 4 µg/mL (≈ 12.9 µM) | MIC (E. coli; EN001 E. coli WT, ENABLE Primary MIC panel): > 64 µg/mL | MIC (E. coli; EN002 E. coli DtolC, ENABLE Primary MIC panel): 4 µg/mL (≈ 12.9 µM) | MIC (E. coli; EN003 E. coli D22 (lps mut), ENABLE Primary MIC panel): > 64 µg/mL | MIC (E. coli; EN0012 E. coli, ENABLE L2C MIC panel): > 64 µg/mL | MIC (E. coli; EN0013 E. coli Del-tolC, ENABLE L2C MIC panel): 0.5 µg/mL (≈ 1.61 µM) | MIC (E. coli; EN0458 E. coli B G− PKL 3698): > 64 µg/mL | MIC (Micrococcus luteus): 0.5 µg/mL (≈ 1.61 µM) | MIC (K. oxytoca): > 64 µg/mL | MIC (A. baumanii; Acinetobacter baumannii, EN007 A. baumanii WT, ENABLE Primary MIC panel, read-out: MIC): > 64 µg/mL | MIC (A. baumanii; EN0016 A. baumanii, ENABLE L2C MIC panel): >64 µg/mL | MIC (A. baumanii; EN0017 A. baumanii Efflux mut, ENABLE L2C MIC panel): >64 µg/mL
